Assay [1] deals with acute DRA induced murine model of asthma. Nature of the assay: acute DRA induced murine model of asthma. As to conditions: 10 mg/kg intraperitoneally on day 10, 12 and 14. The format is in vivo, mouse. The source says: B. Experimental Design. DRA triple allergens were delivered via intranasal route as depicted.
The subject of another assay is IgE. As to conditions: cited from earlier work.

IgE, sequence (P01854 1-426 limits assumed): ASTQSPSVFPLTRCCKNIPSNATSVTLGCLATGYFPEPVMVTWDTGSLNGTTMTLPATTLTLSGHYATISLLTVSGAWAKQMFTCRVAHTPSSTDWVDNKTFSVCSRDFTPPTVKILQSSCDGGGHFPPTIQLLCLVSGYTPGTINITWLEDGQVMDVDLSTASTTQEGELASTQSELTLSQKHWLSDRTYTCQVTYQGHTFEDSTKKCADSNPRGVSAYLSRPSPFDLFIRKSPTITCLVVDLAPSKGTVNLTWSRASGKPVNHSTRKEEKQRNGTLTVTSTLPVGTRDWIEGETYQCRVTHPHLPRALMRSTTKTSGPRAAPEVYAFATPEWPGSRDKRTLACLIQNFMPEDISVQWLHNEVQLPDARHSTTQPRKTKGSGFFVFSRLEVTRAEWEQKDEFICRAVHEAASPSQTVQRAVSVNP

Regarding `FC(F)(F)c1ccc(CNc2ccc(Cc3c[nH]c4ncc(Cl)cc34)cn2)cn1` [PLX3397, 5-((5-chloro-1H-pyrrolo[2,3-b]pyridin-3-yl)methyl)-N-((6-(trifluoromethyl)pyridin-3-yl)methyl)pyridin-2-amine], in assay [1], the “Th2 cytokine increase in BAL fluids” value was “attenuated”, the “allergic lung inflammation (lung pathology)” value was “markedly reduced”, the “eosinophil recruitment to BAL fluid” value is given as “blocked” and the “serum IgE rise” value is listed as “attenuated”.
Turning to “omalizumab: a humanized monoclonal anti-IgE antibody”, in the assay with IgE (inner city children already sensitized to cockroach, Busse W W, et al. 2011), the “control of asthma exacerbations” value is listed as “significant benefit”. The “control of seasonal exacerbations” value in the assay with IgE (pre-seasonal treatment, poorly controlled asthmatics, Teach S J, et al. 2015) was “effective”.

Source of the values: patent US20210145983A1, “METHODS AND COMPOSITIONS OF INHIBITING CSF1R FOR TREATING ALLERGIC INFLAMMATION” (THE BOARD OF TRUSTEES OF THE UNIVERSITY OF ILLINOIS, priority 2018, published 2021).
